Test results as given in patent US10420815B2, “Combinational therapy for synergistic inhibition of gram-positive and gram-negative bacteria” (priority 2015, dated 2019).
Where two headings read alike, the source gives them in different places.

Experiments:
Type in all cases: cell-based, Staphylococcus aureus
MRSA 3795 = experiment: microbe, parasite or virus in culture
Source text: (§1) MRSA (ATCC 33593), MSSA (ATCC 29213), and MRSA USA300 (BAA-1680) strains were purchased from the American Type Culture Collection (ATCC; Manassas, Va.). Eight clinical isolates of MRSA were obtained from the Culture Collection of Antimicrobial Resistant Microbes, Korea National Research Resource Center (KNRRC). Salmonella enterica Typhimurium LT2 was purchased from ATCC, and Escherichia coli O157:H7 is a kind gift from Dr. Sangryeol Ryu (Seoul National University, South Korea). All S. aureus strains were maintained in Trypticase Soy (TS) medium, and E. coli O157:H7 and Salmonella were routinely grown aerobically on Luria-Bertani (LB) media at 37° C. For measuring growth kinetics, an overnight culture of MRSA in Mueller-Hinton (MH) broth was diluted 100-fold in fresh MH broth and cultured until early exponential phase. The culture (200 μl) was transferred to each well of a sterile 96-well plate and incubated at 37° C. with bacitracin alone, alkyl gallate alone, and combination of bacitracin/alkyl gallates at various concentrations. The optical density at 600 nm (OD600) was measured every hour with FLUOstar® Omega (BMG Labtech, Germany).
(§2) Broth micro dilution assays were performed to determine the minimum inhibitory concentrations (MIC) accordance to the M7-A7 protocol of the Clinical and Laboratory Standards Institute (CLSI) guidelines^28. The susceptibility test was carried out with an initial bacterial inoculum of 1.5×10^5 CFU ml^−1. Alkyl gallates and bacitracin were serially diluted in a polystyrene 96 well plate and the plate was incubated at 37° C. for 24 h. Minimum bactericidal concentration (MBC) was determined by spotting 10 μl of cultures from MIC tests onto MH agar and incubated aerobically at 37° C.

MRSA 3799 = experiment: microbe, parasite or virus in culture
Source text: as §1, §2

MRSA 3823 = experiment: microbe, parasite or virus in culture
Source text: as §1, §2

MRSA 3865 = experiment: microbe, parasite or virus in culture
Source text: as §1, §2

MRSA 3876 = experiment: microbe, parasite or virus in culture
Source text: as §1, §2

MRSA 3903 = experiment: microbe, parasite or virus in culture
Source text: as §1, §2

MRSA 3A585 = experiment: microbe, parasite or virus in culture
Source text: as §1, §2

MRSA (ATCC 33593) = experiment: microbe, parasite or virus in culture
Source text: as §1, §2
(§3) MICs were determined with MRSA and methicillin-sensitive S. aureus (MSSA) using a broth dilution method as described above.
(§4) MRSA and MSSA were cultured overnight with antioxidants (0.5 μg/ml) and bacitracin at various concentrations and 10 μL of the culture was spotted on MH agar plates and incubated aerobically at 37° C. to observe the bacterial viability. The results in FIGS. 9A, 9B, 9C and 9D (photographs of plates) show the Minimal Bactericidal Concentrations (MBCs) for indicated antioxidants. Bacitracin killed MRSA and MSSA at concentrations greater than or equal to 2 μg/mi.

MSSA (ATCC 29213) = experiment: MIC (broth dilution) and MBC (spotting) of phenolic antioxidants and bacitracin; conditions: for MIC: antioxidant alone
Source text: as §1, §2, §3, §4

[1] = tested on: MRSA (normal MRSA strain, not USA300); experiment: MRSA growth (optical density) with bacitracin and phenolic antioxidants
Source text: as §1
MRSA were grown with bacitracin (0.002 μg/mL) with antioxidant (as shown) at 0.5 μg/mL.
FIG. 7A is growth with no added bacitracin or lauryl gallate.
The optical density of MRSA was measured after 18 h culture with bacitracin (0.002 μg/ml) and antioxidants (as indicated at 0.5 μg/ml). Also measured were controls with no additions, with bacitracin alone and with antioxidant alone. FIGS. 8A, 8B, 8C and 8D are graphs illustrating the results.

MRSA 3095 = experiment: microbe, parasite or virus in culture; conditions: Staphylococcus aureus; MRSA 3095 (human/skin); read-out: MIC
Source text: as §1, §2

[2] = Staphylococcus aureus, MRSA, antioxidant alone, read-out: MIC
[3] = Staphylococcus aureus, read-out: MIC

Molecule `CN(C)[C@@H]1C(O)=C(C(N)=O)C(=O)[C@@]2(O)C(O)=C3C(=O)c4c(O)cccc4[C@@](C)(O)[C@H]3C[C@@H]12` [TET, tetracycline] has an MIC (MRSA 3795; Staphylococcus aureus, MRSA) of 16 µg/mL, an MIC (MRSA 3799; Staphylococcus aureus, MRSA) of 64 µg/mL and an MIC (MRSA 3823; Staphylococcus aureus, MRSA) of 64 µg/mL. The MIC (MRSA 3865; Staphylococcus aureus, MRSA) was 32 µg/mL, the MIC (MRSA 3876; Staphylococcus aureus, MRSA) was 16 µg/mL and the MIC (MRSA 3903; Staphylococcus aureus, MRSA) was 128 µg/mL. It also gave an MIC (MRSA 3A585; Staphylococcus aureus, MRSA) of at least 8 µg/mL.

With gentamicin the MIC (MRSA 3795; MRSA 3795 (human/nose)) was at least 128 µg/mL, the MIC (MRSA 3799; MRSA 3799 (human/nose)) was 32 µg/mL and the MIC (MRSA 3823; MRSA 3823 (human/nose)) was at least 128 µg/mL. The MIC (MRSA 3865; MRSA 3865 (human/skin)) was 32 µg/mL, the MIC (MRSA 3876; MRSA 3876 (human/skin)) was 32 µg/mL and the MIC (MRSA 3903; MRSA 3903 (human/skin)) was at least 128 µg/mL. It also gave an MIC (MRSA 3A585; MRSA 3A585 (human/blood)) of at least 8 µg/mL.

Molecule `COc1cc(C(=O)O)ccc1O` [Vanillic acid, vanillic acid] has an MIC (MRSA (ATCC 33593); [2]) of over 1020 µg/mL and an MIC (MSSA (ATCC 29213); [3]) of over 1020 µg/mL.

For `O=C1c2c(O)cc(O)cc2O[C@H](c2ccc(O)c(O)c2)[C@H]1O` [Taxifolin, taxifolin], the MIC (MRSA (ATCC 33593); [2]) was over 1020 µg/mL and the MIC (MSSA (ATCC 29213); [3]) was over 1020 µg/mL.

Work on `O=c1c(O)c(-c2ccc(O)cc2O)oc2cc(O)cc(O)c12` [Morin, morin] yielded an MIC (MRSA (ATCC 33593); [2]) of over 1020 µg/mL and an MIC (MSSA (ATCC 29213); [3]) of over 1020 µg/mL.

`O=C(O)/C=C/c1ccc(O)c(O)c1` [Caffeic acid, caffeic acid] was tested, and the MIC (MRSA (ATCC 33593); [2]) was over 1020 µg/mL and the MIC (MSSA (ATCC 29213); [3]) was over 1020 µg/mL.

For `O=C(OC[C@H]1O[C@@H](OC(=O)c2cc(O)c(O)c(OC(=O)c3cc(O)c(O)c(O)c3)c2)[C@H](OC(=O)c2cc(O)c(O)c(OC(=O)c3cc(O)c(O)c(O)c3)c2)[C@@H](OC(=O)c2cc(O)c(O)c(OC(=O)c3cc(O)c(O)c(O)c3)c2)[C@@H]1OC(=O)c1cc(O)c(O)c(OC(=O)c2cc(O)c(O)c(O)c2)c1)c1cc(O)c(O)c(OC(=O)c2cc(O)c(O)c(O)c2)c1` [Tannic acid, tannic acid], the “fold decrease of bacitracin MBC by antioxidant” value (MRSA (ATCC 33593); MRSA, antioxidant 0.5 μg/ml, compared to bacitracin alone) was 4 fold, the MIC (MRSA (ATCC 33593); Staphylococcus aureus) was 512 µg/mL and the MIC (MRSA (ATCC 33593); [2]) was 1020 µg/mL. The MIC (MSSA (ATCC 29213); [3]) was 256 µg/mL, the “fold decrease of bacitracin MBC by antioxidant” value (MSSA (ATCC 29213); antioxidant 0.5 μg/ml, compared to bacitracin alone) was 8 fold and the MIC (MSSA (ATCC 29213)) was 128 µg/mL. The “growth of MRSA with bacitracin plus antioxidant” value ([1]; bacitracin 0.002 μg/mL, antioxidant 0.5 μg/mL, FIG. 6) was “significantly inhibited the growth of MRSA” and the “optical density of MRSA after 18 h culture: inhibition of growth in combination with bacitracin” value ([1]; bacitracin 0.002 μg/ml (ca. 0.0002 U), antioxidant 0.5 μg/ml, 18 h, FIG. 8) was “significantly inhibited MRSA”.

With `Oc1cc(O)c2c(c1)OC(c1ccc(O)c(O)c1)C(O)C2` (stereo not drawn) [Catechin(+), catechin] the MIC (MRSA (ATCC 33593); MRSA, antioxidant alone) was over 1024 µg/mL and the MIC (MSSA (ATCC 29213)) was over 1024 µg/mL.

In the case of `CCn1cc(C(=O)O)c(=O)c2cc(F)c(N3CCNCC3)cc21` [NOR, norfloxacin], the MIC (MRSA 3095) is reported as at least 128 µg/mL, the MIC (MRSA 3795; Staphylococcus aureus, MRSA 3795 (human/nose), read-out: MIC) is reported as 0.5 µg/mL and the MIC (MRSA 3799; Staphylococcus aureus, MRSA 3799 (human/nose), read-out: MIC) is reported as 0.25 µg/mL. It also gave an MIC (MRSA 3823; Staphylococcus aureus, MRSA 3823 (human/nose), read-out: MIC) of 32 µg/mL, an MIC (MRSA 3865; Staphylococcus aureus, MRSA 3865 (human/skin), read-out: MIC) of at least 128 µg/mL and an MIC (MRSA 3876; Staphylococcus aureus, MRSA 3876 (human/skin), read-out: MIC) of 0.25 µg/mL. For the same molecule, the MIC (MRSA 3903; Staphylococcus aureus, MRSA 3903 (human/skin), read-out: MIC) was 64 µg/mL.

For `O=C1C[C@@H](c2ccc(O)cc2)Oc2cc(O)cc(O)c21` [Narigenine, naringenin], the MIC (MRSA (ATCC 33593); [2]) was over 1020 µg/mL and the MIC (MSSA (ATCC 29213); [3]) was over 1020 µg/mL.

Molecule `O=c1cc(-c2ccccc2)oc2cc(O)cc(O)c12` [Chrysin, chrysin] has an MIC (MRSA (ATCC 33593); [2]) of over 1020 µg/mL and an MIC (MSSA (ATCC 29213); [3]) of over 1020 µg/mL.

`O=c1c(O)c(-c2ccc(O)c(O)c2)oc2cc(O)cc(O)c12` [Quercetin, quercetin] showed an MIC (MRSA (ATCC 33593); [2]) of over 1020 µg/mL and an MIC (MSSA (ATCC 29213); [3]) of over 1020 µg/mL.
